Assay results as given in patent US20150111262A1, “METHODS AND MATERIALS FOR PRODUCING FIVE CARBON BUILDING BLOCKS FROM PROLINE” (INVISTA North America S.á r.l., priority 2013, published 2015).

What was measured:
[1] = test system: ω-transaminase of SEQ ID NO: 7; test: ω-transaminase activity, cadaverine to 5-aminopentanal; assay type: biochemical, Chromobacterium violaceum
Experimental: (§1) A sequence encoding an N-terminal His-tag was added to the Chromobacterium violaceum, Pseudomonas aeruginosa, Pseudomonas syringae and Escherichia coli genes encoding the ω-transaminases of SEQ ID NOs: 7, 8, 9 and 11, respectively (see FIG. 7) such that N-terminal HIS tagged ω-transaminases could be produced. The modified genes were cloned into a pET21a expression vector under the T7 promoter. Each expression vector was transformed into a BL21[DE3] E. coli host. Each resulting recombinant E. coli strain were cultivated at 37° C. in a 250 mL shake flask culture containing 50 mL LB media and antibiotic selection pressure, with shaking at 230 rpm. Each culture was induced overnight at 16° C. using 1 mM IPTG.
(§2) The pellet from each induced shake flask culture was harvested via centrifugation. Each pellet was resuspended and lysed via sonication. The cell debris was separated from the supernatant via centrifugation and the cell free extract was used immediately in enzyme activity assays.
(§3) Enzyme activity assays in the reverse direction (i.e., cadaverine to 5-aminopentanal) were performed in a buffer composed of a final concentration of 50 mM HEPES buffer (pH=7.5), 10 mM cadaverine, 10 mM pyruvate, and 100 μM pyridoxyl 5′ phosphate. […] The formation of L-alanine was quantified via RP-HPLC.

[2] = test system: ω-transaminase of SEQ ID NO: 8; test: as above; assay type: biochemical, Pseudomonas aeruginosa
Experimental: as §1, §2, §3

[3] = test system: ω-transaminase of SEQ ID NO: 9; test: as above; assay type: biochemical, Pseudomonas syringae
Experimental: as §1, §2, §3

[4] = target: T1, ω-transaminase of SEQ ID NO: 11 (Escherichia coli, UniProt P42588); test: as above; assay type: biochemical
T1 construct: His-tag (N); made in house; host or cells: E. coli BL21[DE3], pET21a; cell free extract used
T1 sequence (P42588 whole entry): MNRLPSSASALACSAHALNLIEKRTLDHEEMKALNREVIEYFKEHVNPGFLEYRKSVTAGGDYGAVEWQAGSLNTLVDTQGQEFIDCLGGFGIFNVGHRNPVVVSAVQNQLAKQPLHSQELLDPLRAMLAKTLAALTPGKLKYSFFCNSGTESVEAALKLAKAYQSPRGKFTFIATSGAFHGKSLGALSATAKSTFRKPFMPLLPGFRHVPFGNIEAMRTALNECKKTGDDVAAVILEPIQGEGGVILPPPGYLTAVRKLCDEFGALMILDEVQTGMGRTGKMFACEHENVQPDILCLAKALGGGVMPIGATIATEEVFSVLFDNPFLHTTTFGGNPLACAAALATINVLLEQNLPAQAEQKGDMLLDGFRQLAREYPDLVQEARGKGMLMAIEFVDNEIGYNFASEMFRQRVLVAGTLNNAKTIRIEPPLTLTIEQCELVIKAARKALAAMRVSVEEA
Experimental: as §1, §2, §3

[5] = test system: ω-transaminase of SEQ ID NO: 7; test: ω-transaminase activity, 5-aminopentanoate to glutarate semialdehyde (forward direction); assay type: biochemical, Chromobacterium violaceum
Experimental: (§4) A sequence encoding an N-terminal His-tag was added to the genes from Chromobacterium violaceum and Pseudomonas syringae encoding the ω-transaminases of SEQ ID NOs: 7 and 9, respectively (see FIG. 7) such that N-terminal HIS tagged ω-transaminases could be produced. Each of the resulting modified genes was cloned into a pET21a expression vector under control of the T7 promoter and each expression vector was transformed into a BL21[DE3] E. coli host. The resulting recombinant E. coli strains were cultivated at 37° C. in a 250 mL shake flask culture containing 50 mL LB media and antibiotic selection pressure, with shaking at 230 rpm. Each culture was induced overnight at 16° C. using 1 mM IPTG.
as §2
Enzyme activity assays in the forward direction (i.e., 5-aminopentanoate to glutarate semialdehyde) were performed in a buffer composed of a final concentration of 50 mM HEPES buffer (pH=7.5), 10 mM 5-aminopentanoate, 10 mM pyruvate and 100 μM pyridoxyl 5′ phosphate. […] The formation of L-alanine from pyruvate was quantified via RP-HPLC.

[6] = test system: ω-transaminase of SEQ ID NO: 9; test: ω-transaminase activity, glutarate semialdehyde to 5-aminopentanoate (reverse direction); assay type: biochemical, Pseudomonas syringae; settings: SEQ ID 9
Experimental: as §4, §2
Enzyme activity in the reverse direction (i.e., glutarate semialdehyde to 5-aminopentanoate) were performed in a buffer composed of a final concentration of 50 mM HEPES buffer (pH=7.5), 10 mM glutarate semialdehyde, 10 mM L-alanine and 100 μM pyridoxyl 5′ phosphate. […] The formation of pyruvate was quantified via RP-HPLC.

[7] = test system: ω-transaminase of SEQ ID NO: 7; test: ω-transaminase activity, 5-aminopentanol to 5-oxopentanol; assay type: biochemical, Chromobacterium violaceum
Experimental: (§5) A nucleotide sequence encoding an N-terminal His-tag was added to the Chromobacterium violaceum, Pseudomonas aeruginosa, Pseudomonas syringae, Rhodobacter sphaeroides, Escherichia coli and Vibrio Fluvialis genes encoding the ω-transaminases of SEQ ID NOs: 7-12 respectively (see FIG. 7) such that N-terminal HIS tagged ω-transaminases could be produced. The modified genes were cloned into a pET21a expression vector under the T7 promoter. Each expression vector was transformed into a BL21[DE3] E. coli host. Each resulting recombinant E. coli strain were cultivated at 37° C. in a 250 mL shake flask culture containing 50 mL LB media and antibiotic selection pressure, with shaking at 230 rpm. Each culture was induced overnight at 16° C. using 1 mM IPTG.
as §2
as §3, with “5-aminopentanol” for “cadaverine”, “5-oxopentanol)” for “5-aminopentanal)”, “5-aminopentanol,” for “cadaverine,”

[8] = test system: ω-transaminase of SEQ ID NO: 8; test: as above; assay type: biochemical, Pseudomonas aeruginosa
Experimental: as §5, §2
as §3, with “5-aminopentanol” for “cadaverine”, “5-oxopentanol)” for “5-aminopentanal)”, “5-aminopentanol,” for “cadaverine,”

[9] = test system: ω-transaminase of SEQ ID NO: 9; test: as above; assay type: biochemical, Pseudomonas syringae
Experimental: as §5, §2
as §3, with “5-aminopentanol” for “cadaverine”, “5-oxopentanol)” for “5-aminopentanal)”, “5-aminopentanol,” for “cadaverine,”

[10] = test system: ω-transaminase of SEQ ID NO: 10; test: as above; assay type: biochemical, Rhodobacter sphaeroides
Experimental: as §5, §2
as §3, with “5-aminopentanol” for “cadaverine”, “5-oxopentanol)” for “5-aminopentanal)”, “5-aminopentanol,” for “cadaverine,”

[11] = target: T1, ω-transaminase of SEQ ID NO: 11; test: as above; assay type: biochemical
Experimental: as §5, §2
as §3, with “5-aminopentanol” for “cadaverine”, “5-oxopentanol)” for “5-aminopentanal)”, “5-aminopentanol,” for “cadaverine,”

[12] = test system: ω-transaminase of SEQ ID NO: 12; test: as above; assay type: biochemical, Vibrio Fluvialis
Experimental: as §5, §2
as §3, with “5-aminopentanol” for “cadaverine”, “5-oxopentanol)” for “5-aminopentanal)”, “5-aminopentanol,” for “cadaverine,”

[13] = target: gene product of ygjG (Escherichia coli, UniProt P42588); settings: Samsonova et al., BMC Microbiology, 2003; cited from earlier work
Chain of gene product of ygjG (P42588 whole entry): as above

## NCCCCC=O [5-aminopentanal]
[1]; SEQ ID 7
  acceptance as substrate, forming cadaverine, concluded from reversibility of the ω-transaminase activity: accept 5-aminopentanal as substrate
[2]; SEQ ID 8
  acceptance as substrate, forming cadaverine, concluded from reversibility of the ω-transaminase activity: accept 5-aminopentanal as substrate
[3]; SEQ ID 9
  acceptance as substrate, forming cadaverine, concluded from reversibility of the ω-transaminase activity: accept 5-aminopentanal as substrate
[4]; SEQ ID 11
  acceptance as substrate, forming cadaverine, concluded from reversibility of the ω-transaminase activity: accept 5-aminopentanal as substrate

## NCCCCC(=O)O [5-aminopentanoate]
[5]; SEQ ID 7
  acceptance as substrate, forming 5-oxopentanoate, concluded from reversibility of the ω-transaminase activity: accept 5-aminopentanoate as substrate
[5]; cell free extract, 10 mM 5-aminopentanoate, 10 mM pyruvate, pH 7.5, 25° C., 4 h, RP-HPLC, FIG. 8
  acceptance as substrate (conversion of pyruvate to L-alanine) vs empty vector control: accepted 5-aminopentanoate as substrate
[6]
  acceptance as substrate, forming 5-oxopentanoate, concluded from reversibility of the ω-transaminase activity: accept 5-aminopentanoate as substrate

## NCCCCCO [5-aminopentanol]
[7]; SEQ ID NO 7, 10 mM 5-aminopentanol, 10 mM pyruvate, pH 7.5, 25° C., 4 h, FIG. 13
  acceptance as substrate (conversion of pyruvate to L-alanine) vs empty vector control: accepted 5-aminopentanol as substrate
[8]; SEQ ID NO 8, 10 mM 5-aminopentanol, 10 mM pyruvate, pH 7.5, 25° C., 4 h, FIG. 13
  acceptance as substrate (conversion of pyruvate to L-alanine) vs empty vector control: accepted 5-aminopentanol as substrate
[9]; SEQ ID NO 9, 10 mM 5-aminopentanol, 10 mM pyruvate, pH 7.5, 25° C., 4 h, FIG. 13
  acceptance as substrate (conversion of pyruvate to L-alanine) vs empty vector control: accepted 5-aminopentanol as substrate
[10]; SEQ ID NO 10, 10 mM 5-aminopentanol, 10 mM pyruvate, pH 7.5, 25° C., 4 h, FIG. 13
  acceptance as substrate (conversion of pyruvate to L-alanine) vs empty vector control: accepted 5-aminopentanol as substrate
[11]; SEQ ID NO 11, 10 mM 5-aminopentanol, 10 mM pyruvate, pH 7.5, 25° C., 4 h, FIG. 13
  acceptance as substrate (conversion of pyruvate to L-alanine) vs empty vector control: accepted 5-aminopentanol as substrate
[12]; SEQ ID NO 12, 10 mM 5-aminopentanol, 10 mM pyruvate, pH 7.5, 25° C., 4 h, FIG. 13
  acceptance as substrate (conversion of pyruvate to L-alanine) vs empty vector control: accepted 5-aminopentanol as substrate

## O=CCCCCO [5-oxopentanol]
[7]; SEQ ID 7
  acceptance as substrate, forming 5-aminopentanol, concluded from reversibility of the ω-transaminase activity: accept 5-oxopentanol as substrate
[8]; SEQ ID 8
  acceptance as substrate, forming 5-aminopentanol, concluded from reversibility of the ω-transaminase activity: accept 5-oxopentanol as substrate
[9]; SEQ ID 9
  acceptance as substrate, forming 5-aminopentanol, concluded from reversibility of the ω-transaminase activity: accept 5-oxopentanol as substrate
[10]; SEQ ID 10
  acceptance as substrate, forming 5-aminopentanol, concluded from reversibility of the ω-transaminase activity: accept 5-oxopentanol as substrate
[11]; SEQ ID 11
  acceptance as substrate, forming 5-aminopentanol, concluded from reversibility of the ω-transaminase activity: accept 5-oxopentanol as substrate
[12]; SEQ ID 12
  acceptance as substrate, forming 5-aminopentanol, concluded from reversibility of the ω-transaminase activity: accept 5-oxopentanol as substrate

## NCCCCCN [cadaverine]
[1]; SEQ ID NO 7, 10 mM cadaverine, 10 mM pyruvate, pH 7.5, 25° C., 4 h, FIG. 14
  acceptance as substrate (conversion of pyruvate to L-alanine) vs empty vector control: accepted cadaverine as substrate
[2]; SEQ ID NO 8, 10 mM cadaverine, 10 mM pyruvate, pH 7.5, 25° C., 4 h, FIG. 14
  acceptance as substrate (conversion of pyruvate to L-alanine) vs empty vector control: accepted cadaverine as substrate
[3]; SEQ ID NO 9, 10 mM cadaverine, 10 mM pyruvate, pH 7.5, 25° C., 4 h, FIG. 14
  acceptance as substrate (conversion of pyruvate to L-alanine) vs empty vector control: accepted cadaverine as substrate
[4]; SEQ ID NO 11, 10 mM cadaverine, 10 mM pyruvate, pH 7.5, 25° C., 4 h, FIG. 14
  acceptance as substrate (conversion of pyruvate to L-alanine) vs empty vector control: accepted cadaverine as substrate
[13]
  acceptance as diamine substrate: accepts

## NCCCCN [putrescine]
[13]
  acceptance as diamine substrate: accepts

## NCCCCNCCCN [spermidine]
[13]
  acceptance as diamine substrate: accepts
